Patent US6706740B2, “Fungicidal heterocyclic aromatic amides and their compositions, methods of use and preparation” (Dow AgroSciences LLC, priority 1999, dated 2004)
Read-outs that look alike come from different tables or passages of the source.

Legend:
[1] = system: Leptosphaeria nodorum—LEPTNO; experiment: Glume Blotch of Wheat, in vivo whole plant, 24 Hour Protectant; details: for pest or weed control at 100 ppm: Leptosphaeria, read-out: LEPTNO in vivo 1 Day Protectant
[2] = system: Rhizoctonia solani (RHIZSO); experiment: microbe, parasite or virus in culture; assay type: cell-based; details: Rhizoctonia solani, read-out: RHIZSO in vitro Growth Inhibition
Erysiphe graminis—ERYSGT = experiment: Powdery Mildew of Wheat, in vivo whole plant, 24 Hour Protectant; details: Erysiphe, read-out: ERYSGT in vivo 1 Day Protectant
[3] = system: Puccinia recondita—PUCCRT; experiment: Brown Rust of Wheat, in vivo whole plant, 24 Hour Protectant; details: for pest or weed control at 100 ppm: Puccinia, read-out: PUCCRT in vivo 1 Day Protectant
[4] = system: Phytophthora infestans—PHYTIN; experiment: whole plant or invertebrate; assay type: in vivo; details: for pest or weed control at 100 ppm: Phytophthora, in Solanum lycopersicum, 24 h, read-out: PHYTIN in vivo 1 Day Protectant
[5] = system: Magnaporthe grisea (Pyricularia oryzae—PYRIOR); experiment: microbe, parasite or virus in culture; assay type: cell-based; details: Pyricularia oryzae, read-out: PYRIOR in vitro Growth Inhibition
[6] = system: Stagonospora nodorum (Leptosphaeria nodorum—LEPTNO); experiment: In vitro fungal growth inhibition, Stagonospora nodorum (LEPTNO); assay type: cell-based; details: Leptosphaeria, read-out: LEPTNO in vitro Growth Inhibition
Ustilago maydis (USTIMA) = experiment: microbe, parasite or virus in culture; assay type: cell-based; details: Mycosarcoma maydis, read-out: USTIMA in vitro Growth Inhibition
[7] = system: Mycosphaerella graminicola (Septoria tritici—SEPTTR); experiment: In vitro fungal growth inhibition, Mycosphaerella graminicola (SEPTTR); assay type: cell-based; details: Zymoseptoria tritici, read-out: SEPTTR in vitro Growth Inhibition
[8] = system: Phytophthora infestans (PHYTIN); experiment: microbe, parasite or virus in culture; assay type: cell-based; details: Phytophthora infestans, read-out: PHYTIN in vitro Growth Inhibition
Septoria tritici—SEPTTR = experiment: Leaf Blotch of Wheat, in vivo whole plant, 24 Hour Protectant; details: for pest or weed control at 100 ppm: Zymoseptoria tritici, 24 h, read-out: SEPTTR in vivo 1 Day Protectant
[9] = 100 ppm spray, wheat, 24 hour protectant, % control of fungal infection vs untreated plants
[10] = wheat plants sprayed at 100 ppm, inoculated after 24 hours, control of fungal infection vs untreated plants
[11] = 100 ppm spray, wheat, 24 hour protectant, control of fungal infection vs untreated plants
[12] = 100 ppm spray, 24 hour protectant, wheat, control of fungal infection vs untreated plants

COc1ccnc(C(=O)Nc2ccc(NC(=O)c3cccc(C(F)(F)F)c3)cc2)c1OC(C)=O [Compound 719]
melting point: 124 to 126 °C | pest or weed control at 100 ppm [1, 9]: 25 to 74% | inhibition at 25 ppm [2]: < 80% | pest or weed control at 100 ppm (Erysiphe graminis—ERYSGT; [9]): < 25% | pest or weed control at 100 ppm [3, 9]: < 25% | pest or weed control at 100 ppm [4]: < 25% | inhibition at 25 ppm [5]: < 80% | inhibition at 25 ppm ([6]; 25 ppm in growth medium): < 80% | inhibition at 25 ppm (Ustilago maydis (USTIMA)): < 80% | inhibition at 25 ppm ([7]; 25 ppm in growth medium): < 80% | inhibition at 25 ppm [8]: < 80% | pest or weed control at 100 ppm (Septoria tritici—SEPTTR; [9]): < 25%

Br.COc1ccnc(C(=O)NC2C[C@@H](Cc3ccccc3)O[C@@H](C)C2)c1O (stereo partly drawn) [Compound 311]
melting point: 156 to 158 °C | pest or weed control at 100 ppm ([1]; 24 h): 25 to 74% | inhibition at 25 ppm [2]: < 80% | pest or weed control at 100 ppm (Erysiphe graminis—ERYSGT; 24 h): < 25% | pest or weed control at 100 ppm ([3]; 24 h): 25 to 74% | pest or weed control at 100 ppm [4]: < 25% | inhibition at 25 ppm [5]: < 80% | inhibition at 25 ppm [6]: < 80% | inhibition at 25 ppm (Ustilago maydis (USTIMA)): < 80% | inhibition at 25 ppm [7]: < 80% | inhibition at 25 ppm [8]: < 80% | SEPTTR in vivo 1 Day Protectant (Septoria tritici—SEPTTR; in vivo): + +

O=C(Nc1ccccc1Oc1ccccc1)c1cccnc1O [Compound 520]
melting point: 234 to 235 °C | pest or weed control at 100 ppm [1, 10]: 25 to 74% | inhibition at 25 ppm [2]: < 80% | pest or weed control at 100 ppm (Erysiphe graminis—ERYSGT; [10]): < 25% | pest or weed control at 100 ppm [3, 10]: < 25% | pest or weed control at 100 ppm [4]: < 25% | inhibition at 25 ppm [5]: < 80% | inhibition at 25 ppm ([6]; 25 ppm in the growth medium): < 80% | inhibition at 25 ppm (Ustilago maydis (USTIMA)): < 80% | inhibition at 25 ppm ([7]; 25 ppm in the growth medium): < 80% | inhibition at 25 ppm [8]: < 80% | pest or weed control at 100 ppm (Septoria tritici—SEPTTR; [10]): < 25%

CSc1ccnc(C(=O)NC2COC(=O)[C@H](Cc3ccccc3)[C@@H](OC(=O)C(C)C)[C@H](C)OC2=O)c1O (stereo partly drawn) [Compound 478]
melting point: 184 to 187 °C | pest or weed control at 100 ppm [1, 10]: 25 to 74% | inhibition at 25 ppm [2]: < 80% | pest or weed control at 100 ppm (Erysiphe graminis—ERYSGT; [10]): < 25% | pest or weed control at 100 ppm [3, 10]: 25 to 74% | pest or weed control at 100 ppm [4]: < 25% | inhibition at 25 ppm [5]: < 80% | inhibition at 25 ppm ([6]; 25 ppm in the growth medium): < 80% | inhibition at 25 ppm (Ustilago maydis (USTIMA)): < 80% | inhibition at 25 ppm ([7]; 25 ppm in the growth medium): < 80% | inhibition at 25 ppm [8]: < 80% | pest or weed control at 100 ppm (Septoria tritici—SEPTTR; [10]): 25 to 74%

COc1ccnc(C(=O)NC2CCN(Cc3ccccc3)CC2)c1O.O=C(O)/C=C\C(=O)O [Compound 305]
melting point: 145 to 147 °C | pest or weed control at 100 ppm ([1]; 24 h): < 25% | inhibition at 25 ppm [2]: < 80% | pest or weed control at 100 ppm (Erysiphe graminis—ERYSGT; 24 h): < 25% | pest or weed control at 100 ppm ([3]; 24 h): < 25% | PHYTIN in vivo 1 Day Protectant ([4]; 100 ppm spray, 24 hour protectant, tomato, control of fungal infection vs untreated plants): + + | inhibition at 25 ppm [5]: < 80% | inhibition at 25 ppm [6]: < 80% | inhibition at 25 ppm (Ustilago maydis (USTIMA)): < 80% | inhibition at 25 ppm [7]: < 80% | inhibition at 25 ppm [8]: < 80% | pest or weed control at 100 ppm (Septoria tritici—SEPTTR): < 25%

COc1ccnc(C(=O)Nc2ccc(OC3CC(C)(C)OC(C)(C)C3)cc2)c1O [Compound 459]
melting point: 161 to 163 °C | LEPTNO in vivo 1 Day Protectant [1, 11]: + + | inhibition at 25 ppm [2]: < 80% | pest or weed control at 100 ppm (Erysiphe graminis—ERYSGT; [11]): 25 to 74% | pest or weed control at 100 ppm [3, 11]: 25 to 74% | pest or weed control at 100 ppm [4]: < 25% | inhibition at 25 ppm [5]: < 80% | inhibition at 25 ppm ([6]; 25 ppm in growth medium): < 80% | inhibition at 25 ppm (Ustilago maydis (USTIMA)): < 80% | inhibition at 25 ppm ([7]; 25 ppm in growth medium): < 80% | inhibition at 25 ppm [8]: < 80% | pest or weed control at 100 ppm (Septoria tritici—SEPTTR; [11]): 25 to 74%

O=C(NC1CCCCC1)c1cccnc1O [Compound 515]
melting point: 190 to 192 °C | pest or weed control at 100 ppm [1, 10]: < 25% | inhibition at 25 ppm [2]: < 80% | pest or weed control at 100 ppm (Erysiphe graminis—ERYSGT; [10]): < 25% | pest or weed control at 100 ppm [3, 10]: < 25% | pest or weed control at 100 ppm [4]: < 25% | inhibition at 25 ppm [5]: < 80% | inhibition at 25 ppm ([6]; 25 ppm in the growth medium): < 80% | inhibition at 25 ppm (Ustilago maydis (USTIMA)): < 80% | inhibition at 25 ppm ([7]; 25 ppm in the growth medium): < 80% | inhibition at 25 ppm [8]: < 80% | pest or weed control at 100 ppm (Septoria tritici—SEPTTR; [10]): 25 to 74%

COc1ccnc(C(=O)NC(C)c2ccc(Cl)cc2)c1O (stereo not drawn) [Compound 246]
melting point: 140 to 142 °C | LEPTNO in vivo 1 Day Protectant [1, 12]: + + | inhibition at 25 ppm [2]: < 80% | pest or weed control at 100 ppm (Erysiphe graminis—ERYSGT; [12]): 25 to 74% | pest or weed control at 100 ppm [3, 12]: < 25% | pest or weed control at 100 ppm [4]: < 25% | inhibition at 25 ppm [5]: < 80% | inhibition at 25 ppm ([6]; 25 ppm in growth medium): < 80% | inhibition at 25 ppm (Ustilago maydis (USTIMA)): < 80% | inhibition at 25 ppm ([7]; 25 ppm in growth medium): < 80% | inhibition at 25 ppm [8]: < 80% | pest or weed control at 100 ppm (Septoria tritici—SEPTTR; [12]): 25 to 74%

COCCC(=O)Oc1c(OC)ccnc1C(=O)N[C@H]1COC(=O)[C@H](Cc2ccccc2)[C@@H](OC(=O)C(C)C)[C@H](C)OC1=O [Compound 658]
melting point: 126 to 128 °C | LEPTNO in vivo 1 Day Protectant [1, 9]: + + | inhibition at 25 ppm [2]: < 80% | pest or weed control at 100 ppm (Erysiphe graminis—ERYSGT; [9]): < 25% | PUCCRT in vivo 1 Day Protectant [3, 9]: + + | pest or weed control at 100 ppm [4]: < 25% | inhibition at 25 ppm [5]: > 80% | inhibition at 25 ppm ([6]; 25 ppm in growth medium): < 80% | inhibition at 25 ppm (Ustilago maydis (USTIMA)): < 80% | inhibition at 25 ppm ([7]; 25 ppm in growth medium): < 80% | inhibition at 25 ppm [8]: < 80% | SEPTTR in vivo 1 Day Protectant (Septoria tritici—SEPTTR; [9]): + +

COc1ccnc(C(=O)N[C@@H]2CC(C)(C)C[C@](C)(C(=O)N(C)CCc3ccccc3)C2)c1O [Compound 262]
melting point: 59 to 60 °C | pest or weed control at 100 ppm [1, 12]: 25 to 74% | inhibition at 25 ppm [2]: < 80% | pest or weed control at 100 ppm (Erysiphe graminis—ERYSGT; [12]): < 25% | pest or weed control at 100 ppm [3, 12]: < 25% | pest or weed control at 100 ppm [4]: < 25% | inhibition at 25 ppm [5]: < 80% | inhibition at 25 ppm ([6]; 25 ppm in growth medium): < 80% | inhibition at 25 ppm (Ustilago maydis (USTIMA)): < 80% | inhibition at 25 ppm ([7]; 25 ppm in growth medium): < 80% | inhibition at 25 ppm [8]: < 80% | pest or weed control at 100 ppm (Septoria tritici—SEPTTR; [12]): 25 to 74%

CC(C)C(=O)O[C@H]1[C@H](C)OC(=O)[C@@H](NC(=O)c2nc(Cl)c(Cl)nc2O)COC(=O)[C@@H]1Cc1ccccc1 [Compound 538]
melting point: 108 to 110 °C | pest or weed control at 100 ppm [1, 10]: 25 to 74% | inhibition at 25 ppm [2]: < 80% | pest or weed control at 100 ppm (Erysiphe graminis—ERYSGT; [10]): < 25% | pest or weed control at 100 ppm [3, 10]: 25 to 74% | pest or weed control at 100 ppm [4]: < 25% | inhibition at 25 ppm [5]: < 80% | inhibition at 25 ppm ([6]; 25 ppm in the growth medium): < 80% | inhibition at 25 ppm (Ustilago maydis (USTIMA)): < 80% | inhibition at 25 ppm ([7]; 25 ppm in the growth medium): < 80% | inhibition at 25 ppm [8]: < 80% | pest or weed control at 100 ppm (Septoria tritici—SEPTTR; [10]): 25 to 74%

CCCC(=O)Oc1c(OC)ccnc1C(=O)N[C@H]1COC(=O)[C@H](Cc2ccccc2)[C@@H](OC(=O)C(C)C)[C@H](C)OC1=O [Compound 599]
melting point: 162 to 163 °C | LEPTNO in vivo 1 Day Protectant [1, 9]: + + | inhibition at 25 ppm [2]: < 80% | pest or weed control at 100 ppm (Erysiphe graminis—ERYSGT; [9]): < 25% | PUCCRT in vivo 1 Day Protectant [3, 9]: + + | pest or weed control at 100 ppm [4]: < 25% | inhibition at 25 ppm [5]: < 80% | inhibition at 25 ppm ([6]; 25 ppm in growth medium): > 80% | inhibition at 25 ppm (Ustilago maydis (USTIMA)): < 80% | inhibition at 25 ppm ([7]; 25 ppm in growth medium): > 80% | inhibition at 25 ppm [8]: < 80% | SEPTTR in vivo 1 Day Protectant (Septoria tritici—SEPTTR; [9]): + +

CC1(C)CC(NC(=O)c2cncnc2O)CC(C)(C)C1 [Compound 539]
melting point: 263 to 265 °C | pest or weed control at 100 ppm [1, 10]: 25 to 74% | inhibition at 25 ppm [2]: < 80% | pest or weed control at 100 ppm (Erysiphe graminis—ERYSGT; [10]): < 25% | pest or weed control at 100 ppm [3, 10]: 25 to 74% | pest or weed control at 100 ppm [4]: < 25% | inhibition at 25 ppm [5]: < 80% | inhibition at 25 ppm ([6]; 25 ppm in the growth medium): < 80% | inhibition at 25 ppm (Ustilago maydis (USTIMA)): < 80% | inhibition at 25 ppm ([7]; 25 ppm in the growth medium): > 80% | inhibition at 25 ppm [8]: < 80% | pest or weed control at 100 ppm (Septoria tritici—SEPTTR; [10]): 25 to 74%
